For six compounds, GI50 and TGI results are on record in PubChem BioAssay (NCI).

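Results reflect a 48-hour exposure of cells in 96-well plates to compound at five concentrations. GI50 marks 50% less growth. At the TGI there is no net growth.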

Among the test systems are CAKI-1 renal; COLO 205 colon; HL-60(TB) leukemia; MDA-MB-231 breast; MDA-MB-435; NCI/ADR-RES ovarian; OVCAR-3 ovarian; SK-MEL-28 melanoma; UACC-62 melanoma; UO-31 renal.
Experiment in all cases: NCI tumour cell line growth inhibition, 48 h

Take `CN1CCN(c2ccc(C(=O)Nc3cccc(C#Cc4cccc5[nH]nc(N)c45)c3)cc2C(F)(F)F)CC1`: the GI50 in the assay with CAKI-1 renal was 0.668 µM; with COLO 205 colon, 0.581 µM; in the assay on HL-60(TB) leukemia it was 0.866 µM; in the assay with MDA-MB-231 breast, 0.568 µM; with MDA-MB-435, 0.61 µM; in the assay on NCI/ADR-RES ovarian it was 0.99 µM. The GI50 with OVCAR-3 ovarian was 1.38 µM; in the assay on SK-MEL-28 melanoma it was 0.631 µM; with UACC-62 melanoma, 0.665 µM; in the assay on UO-31 renal, 0.713 µM. For the same compound, the TGI with CAKI-1 renal stood at 1.51 µM; in the assay on COLO 205 colon it was 1.2 µM; in the assay with HL-60(TB) leukemia, 3.08 µM; with MDA-MB-231 breast it was 1.35 µM; with MDA-MB-435, 1.19 µM; in the assay with NCI/ADR-RES ovarian, 2.82 µM. The TGI in the assay with OVCAR-3 ovarian came to 4.73 µM; in the assay with SK-MEL-28 melanoma, 1.25 µM; in the assay with UACC-62 melanoma it was 1.62 µM; with UO-31 renal, 1.8 µM.
As for `COc1ccc2[nH]c(O)c(/C=c3/ccc4c(c3)N=C(c3ccc(F)cc3)N=4)c2c1`, the GI50 with CAKI-1 renal was 7.12 µM; with COLO 205 colon it was 5.13 µM; with HL-60(TB) leukemia, 28.3 µM; with MDA-MB-231 breast, 2.25 µM; in the assay on MDA-MB-435, 3.2 µM; with NCI/ADR-RES ovarian it was 3.78 µM. The GI50 was 3.25 µM in the assay on OVCAR-3 ovarian, 4.34 µM in the assay on SK-MEL-28 melanoma, 6.11 µM in the assay on UACC-62 melanoma and 1.95 µM in the assay with UO-31 renal. Also, the TGI in the assay on CAKI-1 renal is greater than 100 µM; with COLO 205 colon, greater than 100 µM; with HL-60(TB) leukemia, greater than 100 µM; with MDA-MB-231 breast it was 6.04 µM; with MDA-MB-435, 40 µM; in the assay with NCI/ADR-RES ovarian, 24.4 µM. Further, the TGI in the assay on OVCAR-3 ovarian was 11.4 µM; in the assay with SK-MEL-28 melanoma, 28.8 µM; in the assay with UACC-62 melanoma, greater than 100 µM; in the assay with UO-31 renal, 5.01 µM.
In the case of `Nc1cc2nc3ccccc3oc-2cc1=O`, the GI50 in the assay on CAKI-1 renal was 15.3 µM; in the assay with COLO 205 colon it was 1.82 µM; with HL-60(TB) leukemia, 3.19 µM; in the assay with MDA-MB-231 breast, 22.9 µM; in the assay with MDA-MB-435, 0.516 µM; with NCI/ADR-RES ovarian, 9.16 µM. Moreover, the GI50 in the assay on OVCAR-3 ovarian was 3.54 µM; in the assay with SK-MEL-28 melanoma, 1.79 µM; in the assay on UACC-62 melanoma, 1.67 µM; in the assay on UO-31 renal, 1.77 µM. The TGI with CAKI-1 renal is greater than 53.7 µM; with COLO 205 colon, 3.42 µM; with HL-60(TB) leukemia, greater than 100 µM; in the assay on MDA-MB-231 breast, greater than 100 µM; in the assay on MDA-MB-435 it was 1.77 µM; in the assay with NCI/ADR-RES ovarian it was greater than 88.9 µM. Further, the TGI worked out at 29.3 µM with OVCAR-3 ovarian, 3.45 µM with SK-MEL-28 melanoma, 3.27 µM with UACC-62 melanoma and 10.4 µM in the assay on UO-31 renal.
In the case of `C[C@]12CC[C@@H]3c4ccc(O)cc4CC[C@H]3[C@@H]1CC[C@@H]2NS(=O)(=O)c1ccc2ccccc2c1`, the GI50 was 3.16 µM in the assay with CAKI-1 renal; 1.94 µM in the assay on COLO 205 colon; 3.31 µM in the assay on HL-60(TB) leukemia; 1.81 µM with MDA-MB-231 breast; 2.31 µM in the assay with MDA-MB-435; 2.61 µM in the assay on NCI/ADR-RES ovarian. Besides, the GI50 in the assay with OVCAR-3 ovarian is 2.63 µM; in the assay on SK-MEL-28 melanoma, 2.31 µM; in the assay on UACC-62 melanoma, 1.75 µM; with UO-31 renal, 1.83 µM. Further, the TGI with CAKI-1 renal was 10.4 µM; in the assay with COLO 205 colon, 3.37 µM; with HL-60(TB) leukemia, 13.7 µM; with MDA-MB-231 breast, 4.68 µM; in the assay with MDA-MB-435, 5.89 µM; in the assay on NCI/ADR-RES ovarian it was 8 µM. Also, the TGI was 7.3 µM in the assay with OVCAR-3 ovarian, 5.92 µM in the assay with SK-MEL-28 melanoma, 3.9 µM with UACC-62 melanoma and 5.57 µM in the assay with UO-31 renal.
Turning to `NC(CO)C(=O)NCC(=O)O` (stereo not drawn), the TGI in the assay with CAKI-1 renal, with COLO 205 colon, with HL-60(TB) leukemia, with MDA-MB-231 breast, in the assay on MDA-MB-435 and in the assay on NCI/ADR-RES ovarian was greater than 100 µM in each case. The TGI with OVCAR-3 ovarian, with SK-MEL-28 melanoma, in the assay with UACC-62 melanoma and in the assay on UO-31 renal was greater than 100 µM in each case.
In the case of `COc1cc(C2C3=C(COC3=O)Nc3cc4c(cc32)OCO4)cc2c1OCO2` (stereo not drawn), the GI50 with CAKI-1 renal is 0.156 µM; with COLO 205 colon, 0.0735 µM; in the assay with HL-60(TB) leukemia it was 0.059 µM; in the assay on MDA-MB-231 breast, 0.128 µM; in the assay on MDA-MB-435, 0.0238 µM; in the assay with NCI/ADR-RES ovarian it was 0.0785 µM. Besides, the GI50 in the assay on OVCAR-3 ovarian was 0.0267 µM; in the assay on UACC-62 melanoma, 0.0519 µM; in the assay on UO-31 renal, 0.332 µM. Also, the TGI was greater than 100 µM in the assay with CAKI-1 renal; 0.172 µM with COLO 205 colon; greater than 100 µM with MDA-MB-231 breast; 0.0664 µM in the assay with MDA-MB-435; 0.606 µM with NCI/ADR-RES ovarian; 0.0695 µM in the assay with OVCAR-3 ovarian. In addition, the TGI in the assay on SK-MEL-28 melanoma, in the assay on UACC-62 melanoma and in the assay with UO-31 renal was greater than 100 µM in each case.
